Results from patent publication US20260062408A1, “PRODRUGS OF S[…]” (SYNEX HOLDINGS BV, priority 2022, published 2026).

Assays:
[1] = Psychedelic effect in volunteers experienced with ALD-52; type: in vivo, humans; conditions: human volunteers; for Substitution for ALD-52 / Emax: administered as tartrate salt; for Emax: relative to ALD-52 = 1, read-out: Maximum psychedelic effect produced (ALD-52 = 1); for Duration: duration of effect relative to ALD-52
Procedure: Compounds of the invention were tested on volunteers who were experienced with the use of the related compound ALD-52. For each compound, a solution was prepared by dissolving the tartrate salt in deionized water to produce a concentration either of 1 mg/ml of the tartrate salt, or calculated to be equivalent to 1 mg/ml of the free base. This was either administered directly, or was prepared into standardised dosage units by pipetting 0.1 ml of solution onto a square of perforated blotter paper, which was placed overnight in a desiccator and allowed to evaporate to dryness.

[2] = Preventative treatment of chronic cluster headache attacks in volunteers, eight weeks; type: in vivo, humans; conditions: for average self-rated severity of cluster headache attacks: baseline 8.78/10; for average cluster headache attacks per day: baseline 3.44 attacks per day
Source text: Eighteen volunteers were recruited through cluster headache support groups in the Netherlands. Age range of volunteers was between 23 to 67 (average 45.17), 14 males and 4 females. All volunteers had previous experience using psychedelic drugs such as LSD or psilocybin to alleviate cluster headache attacks, as well as prescribed medications including verapamil, prednisone, sumatriptan, topiramate and indomethacin. Volunteers were asked to discontinue use of prescribed medications for five days preceding the commencement of the study and for the eight-week duration.
Participants were supplied standardised 3.0 mg dosage units of SYN-L-017 as the tartrate salt (equivalent to 2.58 mg of SYN-L-017 freebase), measured into capsules for oral administration. These were tested as a preventative for chronic cluster headache attacks. One 3 mg capsule was administered intermittently in a pattern of one day on, two days off for a period of eight weeks (using the protocol described in Karst et al. (Karst M, et al. The non-hallucinogen 2-bromo-lysergic acid diethylamide as preventative treatment for cluster headache: An open, non-randomized case series. Cephalalgia 2010; 30(9):1140-1144. DOI: 10.1177/0333102410363490)) and the volunteers were asked to keep a diary to track the frequency and self-rated severity of cluster headache attacks on a scale of 1-10.

5-HT2A receptor = target: T1, 5-HT2A receptor (Mus musculus, UniProt P35363); conditions: 1 mg/kg i.p., 30 min, same assay conditions; data from Halberstadt et al. 2019; cited from earlier work
T1 construct: tissue Jackson Laboratories; host or cells: living male C57BL/6J mice (whole animal, brain)
T1 sequence (P35363 whole entry): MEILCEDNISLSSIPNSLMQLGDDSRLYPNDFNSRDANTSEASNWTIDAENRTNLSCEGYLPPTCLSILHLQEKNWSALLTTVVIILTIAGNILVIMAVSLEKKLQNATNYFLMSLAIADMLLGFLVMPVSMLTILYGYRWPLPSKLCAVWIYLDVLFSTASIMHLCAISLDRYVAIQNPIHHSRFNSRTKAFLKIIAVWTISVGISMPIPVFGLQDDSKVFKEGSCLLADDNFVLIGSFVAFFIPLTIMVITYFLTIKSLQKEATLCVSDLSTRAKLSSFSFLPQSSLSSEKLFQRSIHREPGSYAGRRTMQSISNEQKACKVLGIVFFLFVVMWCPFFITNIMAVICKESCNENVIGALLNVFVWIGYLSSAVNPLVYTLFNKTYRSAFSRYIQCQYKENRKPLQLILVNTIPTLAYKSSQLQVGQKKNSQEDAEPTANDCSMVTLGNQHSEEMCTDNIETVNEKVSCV

Compound	Substitution for ALD-52 [1]	Emax [1]	also measured
CCC(=O)n1cc2c3c(cccc31)C1=C[C@@H](C(=O)N(CC)C3CC3)CN(C)[C@@H]1C2 [SYN-L-197, 1-propionyl-lyserqic acid ethylcyclopropylamide]	Partial	50%	
CCN(CC)C(=O)[C@@H]1C=C2c3cccc4c3c(cn4C(=O)C(C)(C)C)C[C@H]2N(C)C1 [SYN-L-024, 1-pivaloyl-lysergic acid diethylamide]	Partial	25%	Duration [1]: Shorter duration
CC(=O)n1cc2c3c(cccc31)C1=C[C@@H](C(=O)N3CCOCC3)CN(C)[C@@H]1C2 [SYN-L-196, 1-acetyl-lysergic acid morpholide]	Partial	50%	
CCC(=O)n1c(Br)c2c3c(cccc31)C1=C[C@@H](C(=O)N(CC)CC)CN(C)[C@@H]1C2 [SYN-L-017, 1-propionyl-2-bromo-lysergic acid diethylamide]	No substitution	0%	average self-rated severity of cluster headache attacks ([2]; after four weeks, 3 mg tartrate capsule oral, one day on, two days off): 4.46 /10; average cluster headache attacks per day ([2]; after four weeks): 2.13 attacks per day; side effects consistent with psychedelic effects ([2]; eight-week study): No side effects consistent with psychedelic effects were reported; volunteers reporting no side effects of any significance ([2]; eight-week study): 75%; volunteers reporting side effects including dizziness, nausea, fatigue, difficulty concentrating and insomnia ([2]; eight-week study): 25%; volunteers who thought the drug more effective than their normally used prescribed medication ([2]; eight-week study): 83.33%; perceived severity of side effects ([2]; eight-week study, none rated moderate or severe): mild; average cluster headache attacks per day ([2]; end of the eight weeks): 1.78 attacks per day; average self-rated severity of cluster headache attacks ([2]; end of the eight weeks): 3.72 /10; volunteers reporting improvement of cluster headache symptoms ([2]; overall, eight-week study): 91.67%
CCN(CC)C(=O)[C@@H]1C=C2c3cccc4c3c(cn4S(=O)(=O)C3CC3)C[C@H]2N(C)C1 [SYN-L-014, 1-cyclopropanesulfonyl-lysergic acid diethylamide]	No substitution	0%	
CCN(CC)C(=O)[C@@H]1C=C2c3cccc4c3c(cn4C(=O)c3ccccc3C)C[C@H]2N(C)C1 [SYN-L-008, 1-(o-toluoyl)-lysergic acid diethylamide]	Partial	25%	
C=CCN1C[C@H](C(=O)N(C)C(C)C)C=C2c3cccc4c3c(cn4C(=O)CC)C[C@H]21 [SYN-L-073, 1-propionyl-6-allyl-6-nor-lysergic acid methylisopropylamide]	Partial	50%	
CCCCCCCC/C=C\CCCCCCCC(=O)n1cc2c3c(cccc31)C1=C[C@@H](C(=O)N(CC)CC)CN(C)[C@@H]1C2 [SYN-L-043, 1-oleoyl-lyserqic acid diethylamide]	Partial	25%	
C=C(C)CN1C[C@H](C(=O)N(CC)CC)C=C2c3cccc4c3c(cn4C(=O)CC)C[C@H]21 [SYN-L-203, 1-propionyl-6-methallyl-6-nor-lysergic acid diethylamide]	Partial	25%	
CCN(CC)C(=O)[C@@H]1C=C2c3cccc4c3c(cn4C(C)=O)C[C@H]2N(C)C1 [ALD-52, 1-acetyl-d-lysergic acid diethylamide]			average HTR count (5-HT2A receptor): 16.6
CCCCCCCCCCCC(=O)n1cc2c3c(cccc31)C1=C[C@@H](C(=O)N(CC)CC)CN(C)[C@@H]1C2 [SYN-L-004, 1-dodecanoyl-lysergic acid diethylamide]	Partial	25%	Duration [1]: Slightly longer
CCCCCCCCCCCCCCCCCC(=O)n1cc2c3c(cccc31)C1=C[C@@H](C(=O)N(CC)CC)CN(C)[C@@H]1C2 [SYN-L-042, 1-stearoyl-lyserqic acid diethylamide]	Partial	25%	
